# Reference: paper PMC10531915, “A High-Throughput Small-Angle X-ray Scattering Assay to Determine the Conformational Change of Plasminogen” (International Journal of Molecular Sciences, 2023)
# Where “and” joins values, the source holds several entries; their conditions need not be identical. Identical values can stand only once. Entries after “also recorded” stand apart in the source; their conditions may differ.
# What was measured:
# Plg GII = assay: HTP 96-well SAXS titration: ligand-induced closed-to-open conformational change of Plg GII; type: biochemical, human; conditions: for Plg conformational change (efficacy in words) / Rg: HTP SAXS; for Plg conformational change (efficacy in words): 0.5 mg/mL Plg, pH 7.4, 16 °C, MK12 up to 10 mM; for Kopen: concentration of ligand at which 50% of Plg GII is open, 0.5 mg/mL Plg GII, 100 mM sodium phosphate pH 7.4, 5% glycerol, 15–30 min incubation, 16 °C, Rg from SAXS, fit with Hill slope; for Fold (GII/GI) of Kopen: Kopen Plg GII / Kopen Plg GI; for Kopen for GII higher than for GI: Kopen Plg GII versus Plg GI; for Kopen of EACA relative to TXA, GII: EACA versus TXA; for Kopen fold lower than L-lysine: Kopen for L-lysine 7.47 ± 1.12 mM; on Rg: values in Å
# Procedure: An HTP assay to study the kinetics of Plg conversion from a closed to an open state was established for this work using Plg GII (see Section 4 and Figure 2).
# (§1) Figure 2 Overview of the high-throughput (HTP) kinetic studies of Plg conformational change. In this HTP assay, ligand-induced Plg conformational change is set up in a 96-well plate format. (a) Ligands at the study concentration are mixed with Plg and incubated for 30 min. (b,c) The samples flowed past the X-ray beam in a quartz capillary, and scattering images were collected. (d) The resulting 2D scattering profile is averaged and buffer subtracted. (e). Rg values are derived via Guinier analysis (f) and then normalized before plotting against ligand concentration. The plot is fitted to a multi-site binding model, and Kopen, the ligand concentration required to induce 50% open Plg, is derived. Kopen is a kinetic parameter indicative of ligand efficacy or stability of closed conformation.
# (§2) EACA, TXA, and L-lysine were purchased from Sigma-Aldrich (St Louis, MO, USA), whereas peptides MK12, NK55, and CK10 were purchased from GL Biochem (Shanghai, China). Solutions of EACA, TXA, and L-lysine (0.5–1.0 M) were prepared in ultrapure water. The peptide ligands are slightly acidic and therefore were dissolved in 0.1 M NH4OH with gentle sonication. MK12 and CK10 were prepared as 20 mM stock solution, and NK55 was prepared as a 625 μM stock solution.
# (§3) For the SEC-SAXS experiment, in-line size exclusion chromatography using a WTC-010S5 column (WYATT) with a co-flow setup was used. For the HTP assays, 1 mg/mL protein samples were mixed 1:1 (v/v) with effector solutions to a final volume of 50 μL in a 96-well plate and incubated for 15–30 min before data collection at 16 °C. The final protein concentration for these experiments was 0.5 mg/mL in the assay buffer unless otherwise specified.
# For each sample, a matching buffer was used for background scatter subtraction. To minimize the effect of radiation damage, 50 μL samples were flowed past the X-ray beam in a 1.5 mm diameter quartz capillary at 4 μL.s^−1. Then, 15 to 20 2D scattering images were collected on a Pilatus 1M X-ray detector (Dectris, Baden-Daettwil, Swizerland) using 18 × 1 s exposures. The images were averaged, and the background was subtracted using the Scatterbrain software v.2.82 available at the Australian Synchrotron
# For each titration series, the Rg values were normalized as follows: Normalized Rg=Rg− minimum Rg/maximum Rg− minimum Rg
# [1] = system: Plg, mixed glycoform sample; conditions: cited from earlier work
# Procedure: To analyze the transition profiles of Plg recorded from the fully closed to the fully open forms, we fitted the kinetic data as follows: the Rg of Plg GII in 0 mM EACA (32 Å) was defined as closed. The Rg of Plg in 20 m ...
# Plg = Plg activation by tPA with chromogenic substrate S-2251 (Kactivation); conditions: Kactivation by tPA compared to Kopen; 0.25 μM Plg, 0.01 μM tPA, 1 h, 28 °C, 0.2 mM S-2251, A405 nm
# Plg GI = assay: HTP 96-well SAXS titration: ligand-induced closed-to-open conformational change of Plg GI; type: biochemical, human; conditions: for Kopen: concentration of ligand at which 50% of Plg GI is open, 0.5 mg/mL Plg, 100 mM sodium phosphate pH 7.4, 5% glycerol, 15–30 min incubation, 16 °C, Rg from SAXS
# Procedure: as §1
# Thus, we also performed kinetics studies on GI and GII to verify this hypothesis using EACA and TXA in the HTP format (Figure S4, Table 1).
# as §2, §3
# For each sample, a matching buffer was used for background scatter subtraction. To minimize the effect of radiation damage, 50 μL samples were flowed past the X-ray beam in a 1.5 mm diameter quartz capillary at 4 μL.s^−1. […]
# [2] = in vivo, up to, no reference given; cited from earlier work
# Text: Importantly, our data support the notion that these lysine analogues can potentially outcompete the binding of Plg to its binding proteins Plg-RKT and α2AP (Figure S6) at a therapeutic dosage in vivo (plasma ...
# [3] = SEC-SAXS and Guinier/P(r) analysis of Plg conformation; type: physicochemical, human; conditions: for Dmax (maximum diameter): P(r); for Rg (radius of gyration): SEC-SAXS, Guinier approximation; on all read-outs here: values in Å
# Procedure: Plg was isolated and purified from human plasma from Red Cross Blood Bank Australia via three-step purification as previously described. Plg GI and GII were prepared with a TXA gradient (Figure S3). Closed Plg was prepared via exhaustive dialysis of purified protein into the assay buffer (100 mM sodium phosphate pH 7.4, 5% glycerol). Proteins were concentrated to 1 mg/mL in centrifugal filters (Merck Millipore, Burlington, MA, USA). The final filtrate was kept as a solvent blank for SAXS experiments.
# Experiments were performed at the Australian Synchrotron SAXS/WAXS beamline using a fixed energy of 12 keV and a camera length of 2.6 m.
# as §3
# Averaged SAXS data were processed with the ATSAS 2.7.2 software package (EMBL Hamburg, Germany). PRIMUS [33] was used for determining the radius of gyration (Rg) and protein molecular weight via Guinier approximation and the particle distance distribution function P(r) using indirect Fourier transform.
# [4] = open conformation, 10 mM EACA (Figure 1)
compound,measurement,setting,value
"398NPSAPRELKEQQDSPGNKDFLQSLKGFPRGDKLFGPDLKLVPPMEEDYPQFGSPK452 [NK55, peptide corresponding to the last 55 residues of α2AP]",Plg conformational change (efficacy in words),Plg GII; Plg GII,confers a higher efficiency in inducing conformational change
same,more efficacious than CK10 (Kopen),"Plg GII; Plg GII, versus CK10",~ 10 fold
same,more efficacious than L-lysine (Kopen),"Plg GII; Plg GII, versus L-lysine",~ 100 fold
same,Kopen,Plg GII,0.08 ± 0.05 mM
"441MEEDYPQFGSPK452 [MK12, peptide corresponding to the last 12 residues of α2AP]",Plg conformational change (efficacy in words),Plg GII; Plg GII,did not observe any change in the SAXS profile of Plg GII; also recorded: could not detect any conformational change; also recorded: did not induce a conformational transition even at 10 mM; also recorded: not functional
"NCCCCCC(=O)O [EACA, ε-aminocaproic acid]",Kopen (previously reported),[1],0.45 mM
same,Kactivation higher than Kopen,Plg,> 8 fold
same,"Kopen of EACA relative to TXA, GI","Plg GI; Plg GI, EACA versus TXA",~ 3 fold
same,Kopen,Plg GI,0.20 ± 0.01 mM
same,Hill slope,"Plg GII; EACA titration 0–20 mM, Plg GII, positive cooperativity",1.5
same,Fold (GII/GI) of Kopen,Plg GII,1.75
same,Kopen for GII higher than for GI,Plg GII,~ 1.75 fold
same,"Kopen of EACA relative to TXA, GII",Plg GII; Plg GII,~ 3 fold
same,"Kopen of EACA relative to TXA, GII","Plg GII; Plg GII, listed as ε-aminocaproic acid (EACA)",approximately three times greater than that of tranexamic acid (TXA)
same,Kopen fold lower than L-lysine,Plg GII; Plg GII,20 fold
same,Kopen,Plg GII,0.35 mM and 0.35 ± 0.02 mM
same,plasma concentration at therapeutic dosage,[2],~ 10 mM
NCCCC[C@H](N)C(=O)O [L-lysine],Kopen fold relative to CK10,"Plg GII; L-lysine concentration required versus CK10, Plg GII",~ 10 fold
same,Kopen fold relative to EACA,"Plg GII; L-lysine concentration required versus EACA, Plg GII",more than 20 fold
same,Plg conformational change (efficacy in words),Plg GII; Plg GII,poor substrate
same,Kopen,Plg GII,7.47 ± 1.12 mM
"NC[C@H]1CC[C@H](C(=O)O)CC1 [TXA, tranexamic acid]",Kactivation higher than Kopen,Plg,> 3.5 fold
same,Kopen,Plg GI,0.068 ± 0.002 mM
same,Fold (GII/GI) of Kopen,Plg GII,1.76
same,Kopen for GII higher than for GI,Plg GII,~ 1.75 fold
same,Plg conformational change (efficacy in words),Plg GII; Plg GII,most efficacious ligand
same,Kopen fold lower than L-lysine,Plg GII; Plg GII,60 fold
same,Kopen,Plg GII,0.12 ± 0.008 mM
same,plasma concentration at therapeutic dosage,[2],~ 1 mM
"C139EQSKLFDSK147 [CK10, synthetic peptide corresponding to a C-terminal peptide of Plg-RKT]",Plg conformational change (efficacy in words),Plg GII; Plg GII,highly efficacious
same,Kopen,Plg GII,0.73 ± 0.24 mM
"Plg GII: human plasminogen glycoform II, purified from human plasma",Dmax (maximum diameter),[3]; closed conformation (Figure 1),105 Å
same,Dmax (maximum diameter),[3]; [4],170 Å
same,diameter of approximate spheroidal particle,"[3]; Porod plot, closed conformation",~78 Å
same,Rg of closed Plg,[3]; SEC-SAXS comparison of closed GI and GII (Figure 5),31.8 ± 0.6 Å
same,Rg (radius of gyration),[3]; closed conformation (Figure 1),31.7 ± 0.11 Å
same,Rg (radius of gyration),[3]; [4],48.8 ± 0.9 Å
same,conformational stability of closed form,"Plg GII; GII versus GI, from Kopen of EACA and TXA, listed as GII",more stable than that of GI
same,Rg,"Plg GII; 0 mM EACA, defined as closed",32 Å
same,Rg,"Plg GII; 20 mM EACA, defined as open",49 Å
